{
  "source": "patent US10683315B2",
  "about": "“Prodrug of an HCV NS5B polymerase inhibitor and method of production and application thereof” (priority 2017, dated 2020)",
  "key": {"[1]": {"system": "Huh7 cells", "assay": "Cytotoxicity in Huh7 cells, ATPLite kit", "format": "cell-based, human", "protocol": "The cytotoxicity of tested compositions comprising the prodrugs was evaluated concurrently in the same cell line Huh7 using an ATPLite kit (Perkin-Elmer, Boston, USA) in accordance with the manufacturer's instruction. The cell suspension in complete culture medium (DMEM 1×, Cellgro; cat. #10-013-CV) was transferred into 96-well plates with black walls and transparent bottoms (50 μl/well) with a final density of 7500 cells per well. Eighteen hours after planting the cells, serial drug dilutions (50 μl/well) were added. The plate with cells was incubated for 4 days at 37° C. in a humidified 5% CO2 atmosphere. The cells were then twice washed with PBS (200 μl/well) and lysed by adding a lytic buffer (50 μl/well); all reagents were taken from the ATPLite kit. Following a 5-minute stirring on a shaker, a substrate was added (50 μl/well). After an additional 5-minute incubation, the plate was kept for 10 minutes in the dark, and luminescence in the wells was measured using the multifunctional reader Victor^3 V 1420 (Perkin Elmer). The values of CC50 for tested prodrugs were measured from a cytotoxicity curve plotted using the GraphPad Prizm software."}, "[2]": {"assay": "Stability in human liver S9 fraction", "format": "in vitro ADME", "protocol": "Proteins were deposited on ice for 15 min. The samples were then centrifuged for 10 min at 3000 rpm, and the supernatant (150 μl) was sampled for analysis.\nTolbutamide (Fluka) was used as the internal standard."}, "[3]": {"details": "from Sofia et al. J. Med. Chem. 2010; cited from earlier work"}},
  "note": "“And” between values parts separate entries of the source, which are not always exact repeats. Equal entries are not always repeated.",
  "data": [
    {"smiles": "C[C@H](N[P@](=O)(OC[C@H]1O[C@@H](n2ccc(=O)[nH]c2=O)[C@](C)(F)[C@@H]1O)Oc1ccccc1)C(=O)OC1CCC1", "note": "[Prodrug 1.1, cyclobutyl (S)-2-{(S)-[(2R,3R,4R,5R)-5-(3,4-dihydro-2,4-dioxo-2H-pyrimidin-1-yl)-3-hydroxy-4-methyl-4-fluoro-tetrahydrofuran-2-ylmethoxy]-phenoxy-phosphorylamino}-propanoate]", "values": [
      {"measurement": "CC90", "setting": "[1]; Huh7, 10% FBS", "value": "> 100", "unit": "µM"},
      {"measurement": "CC50", "setting": "[1]; Huh7, ATPLite, 4 days", "value": "> 100", "unit": "µM"},
      {"measurement": "metabolic rate in human liver microsomal S9 fraction, times faster than cyclohexyl ester of formula A1", "setting": "[2]; ratio of T1/2 vs A1", "value": 28, "unit": "times"},
      {"measurement": "metabolic rate in human liver microsomal S9 fraction, times faster than Sovaldi", "setting": "[2]; ratio of T1/2 vs Sovaldi", "value": 11, "unit": "times"}
    ]},
    {"smiles": "CC(C)OC(=O)[C@H](C)N[P@](=O)(OC[C@H]1O[C@@H](n2ccc(=O)[nH]c2=O)[C@](C)(F)[C@@H]1O)Oc1ccccc1", "note": "[Sovaldi®, Sofosbuvir]", "values": [
      {"measurement": "T1/2 human S9", "setting": "[3]", "value": "34.2 min and 32.4 min"}
    ]}
  ]
}
